Data published in patent US10155754B2, “Substituted 2-imino-1,3-thiazolidin-4-ones as N-arachidonoylethanolamine cellular uptake inhibitors” (UNIVERSITAT BERN, priority 2014, dated 2018).

Columns and labels:
[1] = tested on: AEA cellular uptake (U937 cells); assay: [3H]-AEA cellular uptake inhibition in U937 cells; type: cell-based; conditions: Homo sapiens, U-937, U937 cells, final 100 nM AEA with 0.5 nM [3H]-AEA, 15 min at 37° C.; read-out: AEA uptake IC50
Procedure, shortened: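 U937 cells (0.5×10^6 per sample) pre-incubated with compound (100 pM–100 μM, triplicates) for 15 min at 37 °C, then given 100 nM AEA including 0.5 nM [3H]-AEA for 15 min. Filtration, washing and scintillation counting of cell-associated radioactivity; IC50 by four-parameter nonlinear regression.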

FAAH = target: T1, FAAH (Homo sapiens, UniProt O00519); assay: FAAH activity: hydrolysis of [3H]-AEA in U937 cell homogenates; type: biochemical; conditions: [3H]-AEA hydrolysis, final 100 nM AEA, read-out: FAAH inhibition IC50
T1 construct: endogenous in cells; host or cells: U937 cell homogenate
T1 sequence (O00519 1-579): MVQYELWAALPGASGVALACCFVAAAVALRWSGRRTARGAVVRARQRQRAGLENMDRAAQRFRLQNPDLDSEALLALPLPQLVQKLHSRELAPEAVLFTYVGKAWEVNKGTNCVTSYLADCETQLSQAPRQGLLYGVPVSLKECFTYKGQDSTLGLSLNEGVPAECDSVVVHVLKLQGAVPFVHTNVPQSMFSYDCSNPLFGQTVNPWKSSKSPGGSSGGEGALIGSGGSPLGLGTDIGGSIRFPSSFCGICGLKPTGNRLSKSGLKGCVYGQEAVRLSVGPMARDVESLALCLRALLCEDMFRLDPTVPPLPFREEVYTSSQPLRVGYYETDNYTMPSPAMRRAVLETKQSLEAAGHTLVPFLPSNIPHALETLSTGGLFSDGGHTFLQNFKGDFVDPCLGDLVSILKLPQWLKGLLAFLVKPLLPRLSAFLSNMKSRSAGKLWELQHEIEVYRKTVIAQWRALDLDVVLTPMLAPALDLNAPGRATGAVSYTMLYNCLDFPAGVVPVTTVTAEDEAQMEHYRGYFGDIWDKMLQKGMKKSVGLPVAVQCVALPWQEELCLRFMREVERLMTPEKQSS
Experimental: Hydrolysis of [^3H]-AEA by FAAH was determined as previously described in cell homogenates of U937 cells (0.18 mg protein) (Omeir et al., 1999, Biochem Biophys Res Commun, 264, 316-20; Mor et al., 2004, J Med Chem, 47, 4998-5008). Protein amounts of cell homogenates corresponded to 0.5×10^6 cells (U937), to assure best possible comparability of IC50 values as used for the AEA cellular uptake assays. URB597 was used as positive control. Protein quantification was performed using a BCA assay (Thermo Scientific). Enzyme activity was assessed by addition of vehicle or compounds in 10 μL DMSO to 490 μL homogenate in 10 mM Tris HCl, 1 mM EDTA, 0.1% (w/v) BSA fatty acid free, pH=8 and incubation for 15 min at 37° C. After, a mixture of AEA plus [ethanolamine-1-^3H]-AEA (0.5 nM) at final 100 nM was added to the homogenates and incubated for 15 min at 37° C. The reaction was stopped by addition of 1 mL ice-cold CHCl3:MeOH (1:1) followed by vigorous vortexing. Phase separation was achieved by centrifugation at 10'000×g at 4° C. for 10 min. Radioactivity of the separated aqueous phase (upper phase) containing [^3H-ethanolamine] or [^3H-glycerol] was measured by liquid scintillation counting on a Tri-Carb 2100 TR liquid scintillation analyzer after addition of 3.5 mL Ultima Gold scintillation cocktail (PerkinElmer Life Sciences). Results are expressed as hydrolysis of tritium substrate in percent of vehicle treated control. IC50 values were calculated by GraphPad®. Data are reported as means of n=3 independent experiments performed in triplicates.

IC50 [1] | IC50 (FAAH) | Compound
368 nM | < 10000 nM | COCc1cccc(/C=C2\S/C(=N\Cc3ccc(OC)cc3)N(c3ccccc3)C2=O)c1 [15_Q_N, (2Z,5Z)-5-(3-(methoxymethyl)benzylidene)-2-(4-methoxybenzylimino)-3-phenylthiazolidin-4-one]
87 nM | 170 nM | O=C1/C(=C/c2ccc3c(c2)OCCO3)S/C(=N\Cc2ccc(F)cc2)N1C1CCCCC1 [24_P_I, (2Z,5Z)-2-(4-fluorobenzylimino)-3-cyclohexyl-5-((2,3-dihydrobenzo[b][1,4]dioxin-6-yl)methylene)thiazolidin-4-one]
180 nM | > 10000 nM | O=C1/C(=C/c2ccccc2)S/C(=N\Cc2ccccc2)N1c1ccccc1 [23_C_N, (2Z,5Z)-5-benzylidene-2-(benzylimino)-3-phenylthiazolidin-4-one]
172 nM | > 100000 nM | CC(C)CN1C(=O)/C(=C/c2ccc3c(c2)OCCO3)S/C1=N\c1ccccc1 [24_N_X, (2Z,5Z)-5-((2,3-dihydrobenzo[b][1,4]dioxin-6-yl)methylene)-3-isobutyl-2-(phenylimino)thiazolidin-4-one]
97 nM | 6610 nM | O=C1/C(=C/c2ccc(CO)cc2)S/C(=N\CCCc2ccccc2)N1c1ccccc1 [22_K_N, (2Z,5Z)-2-(3-phenylpropylimino)-5-(4-(hydroxymethyl)benzylidene)-3-phenylthiazolidin-4-one]
1040 nM | 11200 nM | O=C1/C(=C/c2ccc3c(c2)OCCO3)S/C(=N\Cc2ccc(F)cc2)N1c1ccc(F)cc1 [24_P_B, (2Z,5Z)-2-(4-fluorobenzylimino)-3-(4-fluorophenyl)-5-((2,3-dihydrobenzo[b][1,4]dioxin-6-yl)methylene)thiazolidin-4-one]
 | > 100000 nM | O=C1/C(=C/c2ccc3c(c2)OCCO3)S/C(=N\Cc2ccccc2)N1Cc1ccccc1 [24_C_C, (2Z,5Z)-3-benzyl-2-(benzylimino)-5-((2,3-dihydrobenzo[b][1,4]dioxin-7-yl)methylene)thiazolidin-4-one]
301 nM | > 100000 nM | Cc1ccc(/N=C2\S/C(=C\c3ccc4c(c3)OCCO4)C(=O)N2C2CCCCC2)cc1 [24_A_I, (2Z,5Z)-3-cyclohexyl-5-(2,3-dihydro-1,4-benzodioxin-6-ylmethylene)-2-(p-tolylimino)thiazolidin-4-one]
 | > 100000 nM | O=C1/C(=C/c2ccc3c(c2)OCCO3)S/C(=N\Cc2ccccc2)N1c1ccc(F)cc1 [24_C_B, (2Z,5Z)-2-(benzylimino)-3-(4-fluorophenyl)-5-((2,3-dihydrobenzo[b][1,4]dioxin-7-yl)methylene)thiazolidin-4-one]
170 nM | 1590 nM | O=C1/C(=C/c2ccc3c(c2)OCCO3)S/C(=N\Cc2ccccc2)N1c1ccccc1 [24_C_N, (2Z,5Z)-2-(benzylimino)-5-((2,3-dihydrobenzo[b][1,4]dioxin-6-yl)methylene)-3-phenylthiazolidin-4-one]
141 nM | > 100000 nM | O=C1/C(=C/c2ccc3c(c2)OCCO3)S/C(=N\c2ccc(F)cc2)N1C1CCCCC1 [24_B_I, (2Z,5Z)-2-(4-fluorophenylimino)-3-cyclohexyl-5-((2,3-dihydrobenzo[b][1,4]dioxin-6-yl)methylene)thiazolidin-4-one]
51 nM | 617 nM | O=C1/C(=C/c2ccc3c(c2)OCCO3)S/C(=N\Cc2ccc(F)cc2)N1c1ccc(Cl)cc1 [24_P_L, (2Z,5Z)-2-(4-fluorobenzylimino)-3-(4-chlorophenyl)-5-((2,3-dihydrobenzo[b][1,4]dioxin-6-yl)methylene)thiazolidin-4-one]
137 nM | 427 nM | COc1ccc(C/N=C2\S/C(=C\c3ccc4c(c3)OCCO4)C(=O)N2CC(C)C)cc1 [24_Q_X, (2Z,5Z)-2-(4-methoxybenzylimino)-5-((2,3-dihydrobenzo[b][1,4]dioxin-6-yl)methylene)-3-isobutylthiazolidin-4-one]
164 nM | > 100000 nM | COc1ccc(C/N=C2\S/C(=C\c3ccc4c(c3)OCCO4)C(=O)N2c2ccc(C)cc2)cc1 [24_Q_A, (2Z,5Z)-2-(4-methoxybenzylimino)-5-((2,3-dihydrobenzo[b][1,4]dioxin-6-yl)methylene)-3-p-tolylthiazolidin-4-one]
386 nM | > 100000 nM | Cc1ccc(N2C(=O)/C(=C/c3ccc(CO)cc3)S/C2=N\c2ccc(F)cc2)cc1 [22_B_A, (2Z,5Z)-5-(4-(hydroxymethyl)benzylidene)-2-(4-fluorophenylimino)-3-p-tolylthiazolidin-4-one]
817 nM | > 100000 nM | O=C1/C(=C/c2ccc3c(c2)OCCO3)S/C(=N\c2ccccc2)N1c1ccccc1 [compound 24, (2Z,5Z)-5-((2,3-dihydrobenzo[b][1,4]dioxin-6-yl)methylene)-3-phenyl-2-(phenylimino)thiazolidin-4-one]
35 nM | 37 nM | COc1ccc(C/N=C2\S/C(=C\c3ccc4c(c3)OCCO4)C(=O)N2C2CCCCC2)cc1 [24_Q_I, (2Z,5Z)-2-(4-methoxybenzylimino)-3-cyclohexyl-5-((2,3-dihydrobenzo[b][1,4]dioxin-6-yl)methylene)thiazolidin-4-one]
85 nM | 813 nM | COc1ccc(C/N=C2\S/C(=C\c3ccc4c(c3)OCCO4)C(=O)N2c2ccc(Cl)cc2)cc1 [24_Q_L, (2Z,5Z)-2-(4-methoxybenzylimino)-3-(4-chlorophenyl)-5-((2,3-dihydrobenzo[b][1,4]dioxin-6-yl)methylene)thiazolidin-4-one]
150 nM | > 100000 nM | Cc1ccc(/N=C2\S/C(=C\c3ccc(CO)cc3)C(=O)N2CC(C)C)cc1 [22_A_X, (2Z,5Z)-5-(4-(hydroxymethyl)benzylidene)-2-(p-tolylimino)-3-isobutylthiazolidin-4-]
176 nM | 1510 nM | Cc1ccc(N2C(=O)/C(=C/c3ccc4c(c3)OCCO4)S/C2=N\Cc2ccc(F)cc2)cc1 [24_P_A, (2Z,5Z)-2-(4-fluorobenzylimino)-5-((2,3-dihydrobenzo[b][1,4]dioxin-6-yl)methylene)-3-p-tolylthiazolidin-4-one]
327 nM | > 100000 nM | Cc1ccc(/N=C2\S/C(=C\c3ccc4ncsc4c3)C(=O)N2CC(C)C)cc1 [32_A_X, (2Z,5Z)-2-(p-tolylimino)-5-((benzo[d]thiazol-6-yl)methylene)-3-isobutylthiazolidin-4-one]
341 nM | > 100000 nM | Cc1ccc(/N=C2\S/C(=C\c3ccc(CO)cc3)C(=O)N2c2ccc(C)cc2)cc1 [22_A_A, (2Z,5Z)-5-(4-(hydroxymethyl)benzylidene)-2-(p-tolylimino)-3-p-tolylthiazolidin-4-one]
170 nM | > 100000 nM | O=C1/C(=C/c2ccc3c(c2)OCCO3)S/C(=N\c2ccc(F)cc2)N1c1ccc(F)cc1 [24_B_B, (2Z,5Z)-2-(4-fluorophenylimino)-3-(4-fluorophenyl)-5-((2,3-dihydrobenzo[b][1,4]dioxin-6-yl)methylene)thiazolidin-4-one]
403 nM | < 10000 nM | O=C1/C(=C/c2ccc3[nH]ccc3c2)S/C(=N\Cc2ccc(F)cc2)N1c1ccccc1 [03_P_N, (2Z,5Z)-5-((1H-indol-5-yl)methylene)-2-(4-fluorobenzylimino)-3-phenylthiazolidin-4-one]
 | > 100000 nM | COc1ccc(N2C(=O)/C(=C/c3ccc4c(c3)OCCO4)S/C2=N\Cc2ccccc2)cc1 [24_C_F, (2Z,5Z)-2-(benzylimino)-5-((2,3-dihydrobenzo[b][1,4]dioxin-7-yl)methylene)-3-(4-methoxyphenyl)thiazolidin-4-one]
 | > 100000 nM | O=C1/C(=C/c2ccc3c(c2)OCCO3)S/C(=N\c2ccc(F)cc2)N1C1CCCCC1 [22_B_I]
